Laboratory results as given in the SangsterLogP compilation.

SMILES | logP
CCC(CC)COC(Cn1ccnc1)c1ccc(Cl)cc1Cl (stereo unspecified) | 6.24
CC(C)CCOC(Cn1ccnc1)c1ccc(Cl)cc1Cl (stereo unspecified) | 5.71
CC(C)=CCOC(Cn1ccnc1)c1ccc(Cl)cc1Cl (stereo unspecified) | 5.04
CCCCC(CC)COC(Cn1ccnc1)c1ccc(Cl)cc1Cl (stereo unspecified) | 6.89

Other lines, results leading:

logP | SMILES
4.9 | CCCC(C)OC(Cn1ccnc1)c1ccc(Cl)cc1Cl (stereo unspecified)
4.5 | CCC(C)OC(Cn1ccnc1)c1ccc(Cl)cc1Cl (stereo unspecified)
5.13 | CCC(CC)OC(Cn1ccnc1)c1ccc(Cl)cc1Cl (stereo unspecified)
4.33 | C=CCCOC(Cn1ccnc1)c1ccc(Cl)cc1Cl (stereo unspecified)
6.5 | Clc1ccc(C(Cn2ccnc2)OCC2CCCCC2)c(Cl)c1 (stereo unspecified)
4.26 | C=C(C)COC(Cn1ccnc1)c1ccc(Cl)cc1Cl (stereo unspecified)
4.94 | C=CCCCOC(Cn1ccnc1)c1ccc(Cl)cc1Cl (stereo unspecified)
